Patent US20130158112A1, “COMPOSITIONS AND METHODS FOR INHIBITING BETA AMYLOID SECRETION” (priority 2011, published 2013)
Where two headings read alike, the source gives them in different places.

What was measured:
Aβ secretion = test: Secreted total Aβ ELISA in conditioned media of H4βAPP695 wt cells; assay type: cell-based, human; details: for inhibition at 10 µM / inhibition at 30 µM: Homo sapiens, 24 h, H4βAPP695 wt cells; for inhibition at 10 µM: read-out: Total Aβ (% decrease) 10 μM Mean; for inhibition at 30 µM: read-out: Total Aβ (% decrease) 30 μM Mean; for Aβ secretion inhibiting activity (structure activity summary): in words
Method: (§1) H4βAPP695 wt cells, a human […] cell line stably transfected with a wtβAPP695 expression vector construct under the control of a CMV promoter (kindly provided by Dr. Chris Eckman from Mayo Clinic, Florida) were cultured as previously described. Twenty-four hours before drug treatment, the media was replaced with serum-free media. Cells were then incubated with drugs (dissolved in DMSO) or vehicle for 24 h for collection of conditioned media and cell lysates. For the PKC inhibitors experiment, three inhibitors were treated 30 min prior to drug challenge. Primary cortical neurons were prepared from embryonic day 18 APP and presenilin 1 (APPswe, PSEN1dE9) transgenic mice on the C57BL/6 genetic background (Jackson Laboratories, strain no. 5864) as previously described. THLE-3 human hepatoma cells (from ATCC) were plated in 24-well plates that were precoated with 10 μg/mL bovine serum albumin, 10 μg/mL fibronectin, and 30 μg/mL bovine type I collagen. The cells were grown in BEGM media (Clonetics) until confluent and treated with drugs at 20 μM for 24 h. This conditioned media was harvested, diluted 1:1 in serum-free medium, and incubated with H4βAPP695 wt cells for 24 h prior to analysis of secreted Aβ, which was compared to the effect of 10 μM drug treatments without prior incubation with the THLE-3 cells. Caco-2 cells (ATCC) were plated in 12-well plates with Transwell inserts (Costar) at 70000 cells per well and grown for 21 days. The media volume of the apical and basal chambers was 0.5 and 1.5 mL, respectively. Transepithelial resistance was measured in each well and found to be >160 Ω/cm^2. Drugs at 40 μM and 20 μg/mL of lucifer yellow were added in serum-free medium to the apical chamber. Four hours later, the basal chamber media was harvested and used to measure lucifer yellow fluorescence to confirm monolayer integrity as well as for treatment of H4βAPP695 wt cells for 24 h prior to analysis of secreted Aβ, which was compared to the effect of direct addition of 10 μM of the corresponding drug.

H4βAPP695 wt cells = test: Cytotoxicity by total cell protein content (BCA) of H4βAPP695 wt cells; details: cytotoxicity
[1] = system: THLE-3 human hepatoma cells; test: Drug activity persistence after incubation with THLE-3 hepatoma cells; assay type: in vitro ADME; details: for inhibition at 10 µM: Homo sapiens, THLE3, 24 h
Method: as §1
To screen for resistance to metabolism, 1 and eight noncytotoxic analogues with >50% Aβ reducing activity (compounds 27, 29, 48, 52, 53, 65, 73, and 76) were incubated at 20 μM for 24 h with or without THLE-3 human hepatoma cells.

O=C(NCCSCc1cccc(O)c1)c1c(Cl)cccc1Cl [Compound 29, 2,6-dichloro-N-[2-(3-hydroxy-benzylsulfanyl)-ethyl]-benzamide]
inhibition at 10 µM (Aβ secretion): > 50%
inhibition at 30 µM (Aβ secretion): 67.7%
Aβ secretion inhibiting activity (structure activity summary) (Aβ secretion): good activity
Cell protein (% decrease) 10 μM Mean (H4βAPP695 wt cells): 6.3%
Cell protein (% decrease) 30 μM Mean (H4βAPP695 wt cells): 6.6%
inhibition at 10 µM ([1]; 10 μM on H4 cells, without preincubation with hepatoma cells, read-out: hepatoma incubation No total Aβ (% decrease)): 56.4%
inhibition at 10 µM ([1]; 20 μM preincubated 24 h with THLE-3 hepatoma cells, diluted to 10 μM on H4 cells, read-out: hepatoma incubation Yes total Aβ (% decrease)): 23.1%
% remaining Activity ([1]; after 24 h incubation with hepatoma cells): 41%

O=C(NCCSCc1cccc(C(F)(F)F)c1)c1c(Cl)cccc1Cl [Compound 50, 2,6-Dichloro-N-[2-(3-trifluoromethyl-benzylsulfanyl)-ethyl]-benzamide]
inhibition at 30 µM (Aβ secretion): 93.4%
Aβ secretion inhibiting activity (structure activity summary) (Aβ secretion): good activity
melting point: 54 to 55 °C
Cell protein (% decrease) 10 μM Mean (H4βAPP695 wt cells): 19%

O=C(NCCSCc1cccc(Br)c1)c1c(Cl)cccc1Cl [Compound 51, N-[2-(3-Bromo-benzylsulfanyl)-ethyl]-2,6-dichloro-benzamide]
inhibition at 30 µM (Aβ secretion): 90.1%
Aβ secretion inhibiting activity (structure activity summary) (Aβ secretion): good activity
melting point: 74 to 76 °C
Cell protein (% decrease) 10 μM Mean (H4βAPP695 wt cells): 12.3%
Cell protein (% decrease) 30 μM Mean (H4βAPP695 wt cells): 38.6%

O=C(NCCSCc1cccc(Cl)c1)c1c(Br)cccc1Br [Compound 54, 2,6-Dibromo-N-[2-(3-chloro-benzylsulfanyl)-ethyl]-benzamide]
inhibition at 30 µM (Aβ secretion): 83.4%
Aβ secretion inhibiting activity (structure activity summary) (Aβ secretion): maintained activity
melting point: 55 to 57 °C
Cell protein (% decrease) 10 μM Mean (H4βAPP695 wt cells): 6.7%
Cell protein (% decrease) 30 μM Mean (H4βAPP695 wt cells): 20.8%

O=C(NCCSCc1cccc(Br)c1)c1c(Br)cccc1Br [Compound 55, 2,6-Dibromo-N-[2-(3-bromo-benzylsulfanyl)-ethyl]-benzamide]
inhibition at 30 µM (Aβ secretion): 87.3%
Aβ secretion inhibiting activity (structure activity summary) (Aβ secretion): maintained activity
melting point: 70 to 72 °C
Cell protein (% decrease) 10 μM Mean (H4βAPP695 wt cells): 9.8%
Cell protein (% decrease) 30 μM Mean (H4βAPP695 wt cells): 23.9%

O=C(NCCSCc1cc(O)cc(O)c1)c1c(Cl)cccc1Cl [Compound 59, 2,6-Dichloro-N-[2-(3,5-dihydroxy-benzylsulfanyl)-ethyl]-benzamide]
inhibition at 10 µM (Aβ secretion): 3.1%
inhibition at 30 µM (Aβ secretion): 17.2%
Aβ secretion inhibiting activity (structure activity summary) (Aβ secretion): lost activity
melting point: 55 to 57 °C
Cell protein (% decrease) 10 μM Mean (H4βAPP695 wt cells): −0.4%
Cell protein (% decrease) 30 μM Mean (H4βAPP695 wt cells): −0.7%

COc1cc(CSCCNC(=O)c2c(Cl)cccc2Cl)cc(OC)c1 [Compound 60, 2,6-Dichloro-N-[2-(3,5-dimethoxy-benzylsulfanyl)-ethyl]-benzamide]
inhibition at 10 µM (Aβ secretion): 47.9%
inhibition at 30 µM (Aβ secretion): 80.4%
Aβ secretion inhibiting activity (structure activity summary) (Aβ secretion): could be tolerated
melting point: 46 to 47 °C
Cell protein (% decrease) 10 μM Mean (H4βAPP695 wt cells): 2%
Cell protein (% decrease) 30 μM Mean (H4βAPP695 wt cells): −8.7%

N#Cc1c(Cl)cccc1CSCCNC(=O)c1c(Cl)cccc1Cl [Compound 62, 2,6-Dichloro-N-[2-(3-chloro-2-cyano-benzylsulfanyl)-ethyl]-benzamide]
inhibition at 10 µM (Aβ secretion): 48.7%
inhibition at 30 µM (Aβ secretion): 52.3%
melting point: 166 to 168 °C
Cell protein (% decrease) 10 μM Mean (H4βAPP695 wt cells): 3.5%
Cell protein (% decrease) 30 μM Mean (H4βAPP695 wt cells): 1.3%

O=C(NCCSCc1cccc(Cl)c1)c1ccccc1 [Compound 63, N-[2-(3-Chloro-benzylsulfanyl)-ethyl]-benzamide]
inhibition at 10 µM (Aβ secretion): 0.3%
inhibition at 30 µM (Aβ secretion): 10.7%
Aβ secretion inhibiting activity (structure activity summary) (Aβ secretion): not well tolerated
melting point: 75 to 76 °C
Cell protein (% decrease) 10 μM Mean (H4βAPP695 wt cells): 2.4%
Cell protein (% decrease) 30 μM Mean (H4βAPP695 wt cells): −4.5%

O=C(NCCS(=O)(=O)Cc1cccc(Cl)c1)c1c(Cl)cccc1Cl [Compound 66, 2,6-Dichloro-N-[2-(3-chloro-phenylmethanesulfonyl)-ethyl]-benzamide]
inhibition at 10 µM (Aβ secretion): 8.9%
inhibition at 30 µM (Aβ secretion): 9.3%
Aβ secretion inhibiting activity (structure activity summary) (Aβ secretion): No tested substitutions in the linker region were well tolerated
melting point: 156 to 158 °C
Cell protein (% decrease) 10 μM Mean (H4βAPP695 wt cells): −2.2%
Cell protein (% decrease) 30 μM Mean (H4βAPP695 wt cells): −3.8%

O=C(NCCSCc1cccc(Cl)c1)c1c(F)cccc1F [Compound 67, N-[2-(3-Chloro-benzylsulfanyl)-ethyl]-2,6-difluoro-benzamide]
inhibition at 10 µM (Aβ secretion): 4.9%
inhibition at 30 µM (Aβ secretion): 21.6%
Aβ secretion inhibiting activity (structure activity summary) (Aβ secretion): not well tolerated
melting point: 41 to 43 °C
Cell protein (% decrease) 10 μM Mean (H4βAPP695 wt cells): 5.1%
Cell protein (% decrease) 30 μM Mean (H4βAPP695 wt cells): 8.1%

O=C(NC1CC1)c1cccc(CSCCNC(=O)c2c(Cl)cccc2Cl)c1 [Compound 68, 2,6-Dichloro-N-[2-(3-cyclopropylcarbamoyl-benzylsulfanyl)-ethyl]-benzamide]
inhibition at 10 µM (Aβ secretion): 1.9%
inhibition at 30 µM (Aβ secretion): 11%
Aβ secretion inhibiting activity (structure activity summary) (Aβ secretion): did not yield good activity
melting point: 42 to 43 °C
Cell protein (% decrease) 10 μM Mean (H4βAPP695 wt cells): 0%
Cell protein (% decrease) 30 μM Mean (H4βAPP695 wt cells): −1%

O=C(NCCSCc1cccc(NC(=O)C2CC2)c1)c1c(Cl)cccc1Cl [Compound 69, 2,6-Dichloro-N-(2-[3-(cyclopropanecarbonyl-amino)-benzylsulfanyl]-ethyl)-benzamide]
inhibition at 10 µM (Aβ secretion): -21.4%
inhibition at 30 µM (Aβ secretion): -2%
Aβ secretion inhibiting activity (structure activity summary) (Aβ secretion): did not yield good activity
melting point: 46 to 47 °C
Cell protein (% decrease) 10 μM Mean (H4βAPP695 wt cells): 3%
Cell protein (% decrease) 30 μM Mean (H4βAPP695 wt cells): 3.2%

O=C(NCC[S+]([O-])Cc1cccc(Cl)c1)c1c(Cl)cccc1Cl (centres unmarked) [Compound 71, 2,6-Dichloro-N-[2-(3-chloro-phenylmethanesulfinyl)-ethyl]-benzamide]
inhibition at 10 µM (Aβ secretion): 4%
inhibition at 30 µM (Aβ secretion): -16.5%
Aβ secretion inhibiting activity (structure activity summary) (Aβ secretion): No tested substitutions in the linker region were well tolerated
melting point: 174 to 176 °C
Cell protein (% decrease) 10 μM Mean (H4βAPP695 wt cells): −4.9%
Cell protein (% decrease) 30 μM Mean (H4βAPP695 wt cells): 7.3%

O=C(NCCOCc1cccc(Cl)c1)c1c(Cl)cccc1Cl [Compound 72, 2,6-Dichloro-N-[2-(3-chloro-benzyloxy)-ethyl]-benzamide]
inhibition at 10 µM (Aβ secretion): 10.5%
inhibition at 30 µM (Aβ secretion): -5.1%
Aβ secretion inhibiting activity (structure activity summary) (Aβ secretion): No tested substitutions in the linker region were well tolerated
melting point: 70 to 72 °C
Cell protein (% decrease) 10 μM Mean (H4βAPP695 wt cells): −9.9%
Cell protein (% decrease) 30 μM Mean (H4βAPP695 wt cells): 4.2%

O=C(NCCSCc1cccc(Cl)c1)c1c(C(F)(F)F)cccc1C(F)(F)F [Compound 74, N-[2-(3-Chloro-benzylsulfanyl)-ethyl]-2,6-bis-trifluoromethyl-benzamide]
inhibition at 10 µM (Aβ secretion): 6.2%
inhibition at 30 µM (Aβ secretion): 13.5%
Aβ secretion inhibiting activity (structure activity summary) (Aβ secretion): not well tolerated
melting point: 93 to 94 °C
Cell protein (% decrease) 10 μM Mean (H4βAPP695 wt cells): −4.2%
Cell protein (% decrease) 30 μM Mean (H4βAPP695 wt cells): −0.4%

O=C(NCCSCc1ccc(Cl)cc1)c1c(Cl)cccc1Cl [Compound 77, 2,6-Dichloro-N-[2-(4-chloro-benzylsulfanyl)-ethyl]-benzamide]
inhibition at 10 µM (Aβ secretion): 21.8%
inhibition at 30 µM (Aβ secretion): 36.5%
Aβ secretion inhibiting activity (structure activity summary) (Aβ secretion): loss of activity
melting point: 104 to 106 °C
Cell protein (% decrease) 10 μM Mean (H4βAPP695 wt cells): −6.4%
Cell protein (% decrease) 30 μM Mean (H4βAPP695 wt cells): 3%
